Measurements: ChEMBL document CHEMBL4002566, “S-substituted 3,5-dinitrophenyl 1,3,4-oxadiazole-2-thiols and tetrazole-5-thiols as highly efficient antitubercular agents” (Eur J Med Chem, 2017)

How the values were obtained:
Mycobacterium avium [1] = assay: Antimycobacterial activity against Mycobacterium avium CNCTC My 330/88 after 21 days by micromethod; format: functional; details: CNCTC My 330/88, 504 h
[2] = tested on: Mycobacterium tuberculosis; assay: Antimycobacterial activity against Mycobacterium tuberculosis CNCTC My 331/88 after 14 days by micromethod; format: functional; details: CNCTC My 331/88, 336 h
Mycobacterium avium [3] = assay: Antimycobacterial activity against Mycobacterium avium CNCTC My 330/88 after 14 days by micromethod; format: functional; details: CNCTC My 330/88, 336 h
Mycobacterium kansasii [4] = assay: Antimycobacterial activity against Mycobacterium kansasii CNCTC My 235/80 after 14 days by micromethod; format: functional; details: CNCTC My 235/80, 336 h
Mycobacterium kansasii [5] = assay: Antimycobacterial activity against Mycobacterium kansasii 6509/96 clinical isolate after 14 days by micromethod; format: functional; details: 6509/96, 336 h
Candida albicans [6] = assay: Antifungal activity against Candida albicans ATCC 44859 after 24 hrs by broth microdilution method; format: functional; details: ATCC 44859, 24 h
Candida albicans [7] = assay: Antifungal activity against Candida albicans ATCC 44859 after 48 hrs by broth microdilution method; format: functional; details: ATCC 44859, 48 h
Candida tropicalis [8] = assay: Antifungal activity against Candida tropicalis 156 after 24 hrs by broth microdilution method; format: functional; details: Candida tropicalis, 156, 24 h
Candida tropicalis [9] = assay: Antifungal activity against Candida tropicalis 156 after 48 hrs by broth microdilution method; format: functional; details: Candida tropicalis, 156, 48 h
Pichia kudriavzevii [10] = assay: Antifungal activity against Candida krusei E28 after 24 hrs by broth microdilution method; format: functional; details: E28, 24 h
Pichia kudriavzevii [11] = assay: Antifungal activity against Candida krusei E28 after 48 hrs by broth microdilution method; format: functional; details: E28, 48 h
Nakaseomyces glabratus [12] = assay: Antifungal activity against Candida glabrata 20/I after 24 hrs by broth microdilution method; format: functional
Nakaseomyces glabratus [13] = assay: Antifungal activity against Candida glabrata 20/I after 48 hrs by broth microdilution method; format: functional
Trichosporon asahii [14] = assay: Antifungal activity against Trichosporon asahii 1188 after 24 hrs by broth microdilution method; format: functional; details: Trichosporon asahii, 1188, 24 h
Trichosporon asahii [15] = assay: Antifungal activity against Trichosporon asahii 1188 after 48 hrs by broth microdilution method; format: functional; details: Trichosporon asahii, 1188, 48 h
Aspergillus fumigatus [16] = assay: Antifungal activity against Aspergillus fumigatus 231 after 24 hrs by broth microdilution method; format: functional; details: Aspergillus fumigatus, 231, 24 h
Aspergillus fumigatus [17] = assay: Antifungal activity against Aspergillus fumigatus 231 after 48 hrs by broth microdilution method; format: functional; details: Aspergillus fumigatus, 231, 48 h
Lichtheimia corymbifera [18] = assay: Antifungal activity against Absidia corymbifera 272 after 24 hrs by broth microdilution method; format: functional; details: Lichtheimia corymbifera, 272, 24 h
Lichtheimia corymbifera [19] = assay: Antifungal activity against Absidia corymbifera 272 after 48 hrs by broth microdilution method; format: functional; details: Lichtheimia corymbifera, 272, 48 h
[20] = tested on: Trichophyton mentagrophytes; assay: Antifungal activity against Trichophyton mentagrophytes 445 after 72 hrs by broth microdilution method; format: functional; details: Trichophyton mentagrophytes, 445, 72 h
[21] = tested on: Trichophyton mentagrophytes; assay: Antifungal activity against Trichophyton mentagrophytes 445 after 120 hrs by broth microdilution method; format: functional; details: Trichophyton mentagrophytes, 445, 120 h
Staphylococcus aureus [22] = assay: Antibacterial activity against Staphylococcus aureus ATCC 6538 after 24 hrs by broth microdilution method; format: functional; details: ATCC 6538, 24 h
Staphylococcus aureus [23] = assay: Antibacterial activity against Staphylococcus aureus ATCC 6538 after 48 hrs by broth microdilution method; format: functional; details: ATCC 6538, 48 h
Staphylococcus aureus [24] = assay: Antibacterial activity against methicillin-resistant Staphylococcus aureus HK5996/08 after 24 hrs by broth microdilution method; format: functional; details: HK5996/08, 24 h
Staphylococcus aureus [25] = assay: Antibacterial activity against methicillin-resistant Staphylococcus aureus HK5996/08 after 48 hrs by broth microdilution method; format: functional; details: HK5996/08, 48 h
[26] = tested on: Staphylococcus epidermidis; assay: Antibacterial activity against Staphylococcus epidermidis HK6996/08 after 24 hrs by broth microdilution method; format: functional; details: HK6996/08, 24 h
[27] = tested on: Staphylococcus epidermidis; assay: Antibacterial activity against Staphylococcus epidermidis HK6996/08 after 48 hrs by broth microdilution method; format: functional; details: HK6996/08, 48 h
Enterococcus sp. [28] = assay: Antibacterial activity against Enterococcus sp. HK14365/08 after 24 hrs by broth microdilution method; format: functional; details: HK14365/08, 24 h
Enterococcus sp. [29] = assay: Antibacterial activity against Enterococcus sp. HK14365/08 after 48 hrs by broth microdilution method; format: functional; details: HK14365/08, 48 h
Escherichia coli [30] = assay: Antibacterial activity against Escherichia coli ATCC 8739 after 24 hrs by broth microdilution method; format: functional; details: ATCC 8739, 24 h
Escherichia coli [31] = assay: Antibacterial activity against Escherichia coli ATCC 8739 after 48 hrs by broth microdilution method; format: functional; details: ATCC 8739, 48 h
Klebsiella pneumoniae [32] = assay: Antibacterial activity against Klebsiella pneumoniae HK11750/08 after 24 hrs by broth microdilution method; format: functional; details: HK11750/08, 24 h
Klebsiella pneumoniae [33] = assay: Antibacterial activity against Klebsiella pneumoniae HK11750/08 after 48 hrs by broth microdilution method; format: functional; details: HK11750/08, 48 h
Klebsiella pneumoniae [34] = assay: Antibacterial activity against extended spectrum beta-lactamase producing Klebsiella pneumoniae HK14368/08 after 24 hrs by broth microdilution method; format: functional; details: HK14368/08, 24 h
Klebsiella pneumoniae [35] = assay: Antibacterial activity against extended spectrum beta-lactamase producing Klebsiella pneumoniae HK14368/08 after 48 hrs by broth microdilution method; format: functional; details: HK14368/08, 48 h
Pseudomonas aeruginosa [36] = assay: Antibacterial activity against Pseudomonas aeruginosa ATCC 9027 after 24 hrs by broth microdilution method; format: functional; details: ATCC 9027, 24 h
Pseudomonas aeruginosa [37] = assay: Antibacterial activity against Pseudomonas aeruginosa ATCC 9027 after 48 hrs by broth microdilution method; format: functional; details: ATCC 9027, 48 h
[38] = Cytotoxicity against human HuH7 cells assessed as cell viability at 30 uM after 48 hrs by MTS assay relative to control; format: cell-based, Huh-7; details: read-out: Activity
Huh-7 = assay: Cytotoxicity against human HuH7 cells assessed as cell viability after 48 hrs by MTS assay; format: cell-based; details: Huh-7, 48 h
A-431 = assay: Cytotoxicity against human A431 cells assessed as cell viability after 48 hrs by MTS assay; format: cell-based; details: A-431, 48 h
[39] = Cytotoxicity against human A431 cells assessed as cell viability at 30 uM after 48 hrs by MTS assay relative to control; format: cell-based, A-431; details: read-out: Activity
MDCK = assay: Cytotoxicity against MDCK cells assessed as cell viability after 48 hrs by MTS assay; format: cell-based; details: Canis lupus familiaris
[40] = Cytotoxicity against MDCK cells assessed as cell viability at 30 uM after 48 hrs by MTS assay relative to control; format: cell-based, Canis lupus familiaris; details: dog, read-out: Activity
HepG2 = assay: Cytotoxicity against human HepG2 cells assessed as cell viability after 48 hrs by MTS assay; format: cell-based; details: HepG2, 48 h
[41] = Cytotoxicity against human HepG2 cells assessed as cell viability at 30 uM after 48 hrs by MTS assay relative to control; format: cell-based; details: read-out: Activity
[42] = Selectivity index, ratio of IC50 for human HepG2 cells to MIC for Mycobacterium tuberculosis; format: toxicity; details: read-out: Selectivity Index
[43] = tested on: Mycobacterium tuberculosis; assay: Antimycobacterial activity against Mycobacterium tuberculosis CNCTC My 331/88 after 21 days by micromethod; format: functional; details: CNCTC My 331/88, 504 h
Mycobacterium kansasii [44] = assay: Antimycobacterial activity against Mycobacterium kansasii CNCTC My 235/80 after 21 days by micromethod; format: functional; details: CNCTC My 235/80, 504 h
Mycobacterium kansasii [45] = assay: Antimycobacterial activity against Mycobacterium kansasii CNCTC My 235/80 after 7 days by micromethod; format: functional; details: CNCTC My 235/80, 168 h
Mycobacterium kansasii [46] = assay: Antimycobacterial activity against Mycobacterium kansasii 6509/96 clinical isolate after 21 days by micromethod; format: functional; details: 6509/96, 504 h
Mycobacterium kansasii [47] = assay: Antimycobacterial activity against Mycobacterium kansasii 6509/96 clinical isolate after 7 days by micromethod; format: functional; details: 6509/96, 168 h

O=[N+]([O-])c1cc(-n2nnnc2SCc2ccc(Cl)c(Cl)c2)cc([N+](=O)[O-])c1
137%: viability at 48 h, 30 µM [38]
1 µM: MIC (Mycobacterium kansasii [4]) | MIC (Mycobacterium kansasii [44]) | MIC (Mycobacterium kansasii [46])
62 µM: MIC (Staphylococcus aureus [22]) | MIC (Staphylococcus aureus [23])
> 500 µM: MIC (Candida albicans [6]) | MIC (Candida albicans [7]) | MIC (Candida tropicalis [8]) | MIC (Candida tropicalis [9]) | MIC (Pichia kudriavzevii [10]) | MIC (Pichia kudriavzevii [11]) | MIC (Nakaseomyces glabratus [12]) | MIC (Nakaseomyces glabratus [13]) | MIC (Trichosporon asahii [14]) | MIC (Trichosporon asahii [15]) | MIC (Aspergillus fumigatus [16]) | MIC (Aspergillus fumigatus [17]) | MIC (Lichtheimia corymbifera [18]) | MIC (Lichtheimia corymbifera [19]) | MIC [20] | MIC [21] | MIC (Enterococcus sp. [28]) | MIC (Enterococcus sp. [29]) | MIC (Escherichia coli [30]) | MIC (Escherichia coli [31]) | MIC (Klebsiella pneumoniae [32]) | MIC (Klebsiella pneumoniae [33]) | MIC (Klebsiella pneumoniae [34]) | MIC (Klebsiella pneumoniae [35]) | MIC (Pseudomonas aeruginosa [36]) | MIC (Pseudomonas aeruginosa [37])
0.5 µM: MIC (Mycobacterium kansasii [5]) | MIC (Mycobacterium kansasii [45])
250 µM: MIC [26] | MIC [27]
> 30 µM: IC50 (Huh-7) | IC50 (A-431) | IC50 (MDCK) | IC50 (HepG2)
145%: viability at 48 h, 30 µM [41]
90%: viability at 48 h, 30 µM [39]
125 µM: MIC (Staphylococcus aureus [24]) | MIC (Staphylococcus aureus [25])
0.25 µM: MIC [2] | MIC [43] | MIC (Mycobacterium kansasii [47])
84%: viability at 48 h, 30 µM [40]
> 120: selectivity ratio [42]
8 µM: MIC (Mycobacterium avium [3])
32 µM: MIC (Mycobacterium avium [1])

O=[N+]([O-])c1cc(-c2nnc(SCc3ccc(Cl)c(Cl)c3)o2)cc([N+](=O)[O-])c1
> 125 µM: MIC (Candida albicans [6]) | MIC (Candida albicans [7]) | MIC (Candida tropicalis [8]) | MIC (Candida tropicalis [9]) | MIC (Pichia kudriavzevii [10]) | MIC (Pichia kudriavzevii [11]) | MIC (Nakaseomyces glabratus [12]) | MIC (Nakaseomyces glabratus [13]) | MIC (Trichosporon asahii [14]) | MIC (Trichosporon asahii [15]) | MIC (Aspergillus fumigatus [16]) | MIC (Aspergillus fumigatus [17]) | MIC (Lichtheimia corymbifera [18]) | MIC (Lichtheimia corymbifera [19]) | MIC [20] | MIC [21] | MIC (Staphylococcus aureus [22]) | MIC (Staphylococcus aureus [23]) | MIC (Staphylococcus aureus [24]) | MIC (Staphylococcus aureus [25]) | MIC [26] | MIC [27] | MIC (Enterococcus sp. [28]) | MIC (Enterococcus sp. [29]) | MIC (Escherichia coli [30]) | MIC (Escherichia coli [31]) | MIC (Klebsiella pneumoniae [32]) | MIC (Klebsiella pneumoniae [33]) | MIC (Klebsiella pneumoniae [34]) | MIC (Klebsiella pneumoniae [35]) | MIC (Pseudomonas aeruginosa [36]) | MIC (Pseudomonas aeruginosa [37])
32 µM: MIC (Mycobacterium avium [1])
91%: viability at 48 h, 30 µM [40]
0.03 µM: MIC [2] | MIC (Mycobacterium kansasii [4]) | MIC (Mycobacterium kansasii [5]) | MIC [43] | MIC (Mycobacterium kansasii [44]) | MIC (Mycobacterium kansasii [45]) | MIC (Mycobacterium kansasii [46]) | MIC (Mycobacterium kansasii [47])
16 µM: MIC (Mycobacterium avium [3])
> 30 µM: IC50 (Huh-7) | IC50 (A-431) | IC50 (MDCK) | IC50 (HepG2)
125%: viability at 48 h, 30 µM [41]
> 1000: selectivity ratio [42]
153%: viability at 48 h, 30 µM [38]
126%: viability at 48 h, 30 µM [39]
